# Reference: patent US11814652B2, “Pluripotent stem cell differentiation-promoting agent” (Oriental Yeast Co., Ltd., priority 2018, dated 2023)
# Legend:
# [1] = tested on: iPS cells 201B7 strain; test: Cell number during ectodermal differentiation-induction in medium with β-NMN (Example 2); type: cell-based, human; conditions: ectoderm differentiation-inducing medium containing β-NMN 0.1, 0.25 or 1 mM; 2nd, 4th, 7th day after seeding; versus medium not containing β-NMN
# Protocol: The effect of β-NMN on the ectodermal differentiation-induction of the iPS cells was examined. The 201B7 strain was used as the iPS cells. The iPS cells were seeded in a 12-well plate coated with Matrigel (manufactured by Corning Incorporated) according to the manufacturer's protocol at 8×10^5 cells/well. The cells in the 12-well plate were cultured in a culture medium prepared by adjusting an ectodermal differentiation-inducing culture medium of “STEMdiff Trilineage Differentiation kit” (manufactured by STEMCELL Technologies) to have a final concentration of β-NMN of 0, 0.1, 0.25, or 1 mM, and a final concentration of Rock inhibitor of 10 μM for 1 day. From the 1st day after seeding, the medium was replaced every day with a culture medium obtained by removing the Rock inhibitor from the culture medium at the time of seeding. Cells of the 2nd, 4th or 7th day after seeding were sampled and the cell numbers were counted. The time-dependent change in cell number of each sample is shown in FIG. 2(A), and the cell numbers of the 7th day after seeding are shown in FIG. 2(B). As a result, the number of cells cultured in the ectoderm differentiation-inducing culture medium containing β-NMN was larger than the number of cells cultured in the medium not containing β-NMN.
# [2] = tested on: Human adipose tissue-derived mesenchymal stem cells; test: Oil red O staining after adipocyte differentiation-induction of mesenchymal stem cells grown with β-NMN (Example 9); type: cell-based; conditions: growth medium supplemented with 0.1 mM or 0.25 mM of β-NMN; 14th day of adipocyte differentiation-induction; compared with 0 mM
# Description: The effects of culturing in the presence of β-NMN before adipocyte differentiation-induction of mesenchymal stern cells were examined. In the same manner as in Example 8, Human adipose tissue-derived mesenchymal stem cells (manufactured by Lonza, Cat #PT5006) were used as the mesenchymal stem cells. As a growth culture medium, a culture medium prepared by appropriately adding β-MNM to “MSCGM Bullet Kit” (manufactured by Lonza, Cat #PT3001) was used as in Example 8. As an adipocyte differentiation-inducing culture medium, a culture medium prepared by adjusting a DMEM-High Glucose medium to have a final concentration of fetal bovine serum of 10% by volume, a final concentration of IBMX of 0.5 mM, a final concentration of dexamethasone of 1 μM, a final concentration of indomethacin of 200 μM, and a final concentration of penicillin-streptomycin of 0.1% was used. The culture of the mesenchymal stem cells before differentiation-induction was performed in the same manner as in Example 8. The differentiation induction was performed in the same manner as in Example 8 except that the adipocyte differentiation-inducing culture medium was used instead of the bone differentiation-inducing culture medium. On the 14th day from the initiation of the differentiation-induction, the staining test and the cell RNA recovery were performed. […]
# [3] = tested on: Human adipose tissue-derived mesenchymal stem cells; test: qPCR of PPARγ and adiponectin genes after adipocyte differentiation-induction of mesenchymal stem cells grown with β-NMN (Example 9); type: cell-based; conditions: GAPDH internal standard, 0.1 mM or 0.25 mM of β-NMN, 0 mM defined as 1, 14th day of adipocyte differentiation-induction
# Description: The effects of culturing in the presence of β-NMN before adipocyte differentiation-induction of mesenchymal stern cells were examined. In the same manner as in Example 8, Human adipose tissue-derived mesenchymal stem cells (manufactured by Lonza, Cat #PT5006) were used as the mesenchymal stem cells. As a growth culture medium, a culture medium prepared by appropriately adding β-MNM to “MSCGM Bullet Kit” (manufactured by Lonza, Cat #PT3001) was used as in Example 8. As an adipocyte differentiation-inducing culture medium, a culture medium prepared by adjusting a DMEM-High Glucose medium to have a final concentration of fetal bovine serum of 10% by volume, a final concentration of IBMX of 0.5 mM, a final concentration of dexamethasone of 1 μM, a final concentration of indomethacin of 200 μM, and a final concentration of penicillin-streptomycin of 0.1% was used. The culture of the mesenchymal stem cells before differentiation-induction was performed in the same manner as in Example 8. The differentiation induction was performed in the same manner as in Example 8 except that the adipocyte differentiation-inducing culture medium was used instead of the bone differentiation-inducing culture medium. […] The relative expression level of each gene was determined from the results of qPCR of cells that were induced to differentiate into adipocytes. […]
smiles,measurement,setting,value
"NC(=O)c1ccc[n+]([C@@H]2O[C@H](COP(=O)([O-])O)[C@@H](O)[C@H]2O)c1 [β-NMN, β-nicotinamide mononucleotide]",number of cells,[1],larger
same,accumulation of lipid droplets (oil red O staining),[2],more accumulation of lipid droplets
same,relative expression level of the PPARγ gene,[3],increase
same,relative expression level of the adiponectin gene,[3],increase
